Entries after “also recorded” stand apart in the source; their conditions may differ. Like-named read-outs stand apart in the source and are kept apart here.
Experiments:
[1] = Tissue distribution of NCA N-(3-[^18 F]fluoropropyl)spiroperidol in mice after butaclamol pretreatment; format: in vivo, female albino mice (BNL strain)
Description: Tissue Distribution of NCA N-(3-[^ 18 F]fluoropropyl)spiroperidol in Mice
Female albino mice (BNL strain), 22-27 g, were injected in a lateral tail vein with 24-85 μCi of N-(3-[^18 F]fluoropropyl)spiroperidol in 100 μl of isotonic saline solution.
Mice were pretreated with 2 mg/kg, i.v., of either (-)butaclamol (-), or
(+)butaclamol (+). The mice were killed by cervical dislocation and
decapitation at 5, 60 and 120 min after injection. The dissected tissues
were blotted to remove adhering blood and placed in tared counting vials.
A sample of blood was obtained from the trunk immediately after
decapitation. The entire tail was counted to verify the patency of the
tail vein injection. All samples were counted and weighed, and the
activity expressed as percent of injected dose per organ or percent of
injected dose per gram of tissue.

dopamine receptors [2] = experiment: Affinity for dopamine receptors; format: binding
[3] = Metabolic stability of N-(3-[^18 F]fluoropropyl)spiroperidol in mouse brains; format: in vivo, female albino mice (BNL strain); details: for Percent Recovery of Total ^18 F Applied to C-18 Sep-Pak, H2O Eluate / Percent Recovery of Total ^18 F Applied to C-18 Sep-Pak, MeOH Eluate / Percent Recovery of Total ^18 F Applied to C-18 Sep-Pak, NaOH Eluate / Percent of ^18 F in MeOH as N-(3-[^18 F]fluoropropyl)spiroperidol / remaining at 1 h: 1 hr; for remaining at 1 h: mouse, brain, iv, read-out: Percent of Unchanged N-(3-[^18 F]fluoropropyl)spiroperidol
Description: Metabolic Stability of N-(3-[^18 F]fluoropropyl)spiroperidol in Mouse Brains
Three female albino mice (BNL strain), 27-30 g, were injected in a lateral tail vein with […] of N-(3-[^18 F]fluoropropyl)spiroperidol in 100 μl of isotonic saline solution. At 1 hr after injection, the mice were killed by cervical dislocation. The brain was rapidly removed, homogenized either in a mixture of 2 ml of CH3 OH and 4 ml of 0.4M HClO4, or in 2 ml of CH3 OH alone. The samples were centrifuged,and the CH3 OH fractions (or the entire supernants in the case of CH3 OH alone) were analyzed for unchanged N-(3-[^18 F]fluoropropyl)spiroperidol [Arnett et al., Life Sci., 36, 1359-1366 (1985)] and analyzed by HPLC (C18 column, 4.5×250 mm, CH3 OH:0.2N NH4 CO2 H (90:10), 1.5 ml/min).
^a The precipitates were separated without further washings.
^b The precipitates were separated and washed with MeOH--HClO4

dopamine receptors [4] = experiment: Uptake in the brain and radiation burden (general statement); details: in vivo
dopamine receptors [5] = experiment: PET baboon studies: brain kinetics in striatum and cerebellum
Text: A young adult (11 kg) female baboon (Papio anubis) was anesthetized initially with ketamine and subsequently maintained under halothane/nitrous oxide anesthesia for two PETT studies as described in the Arnett et al. paper referenced in Example 7. […] PET scans were made continually for 4 hr from the time of radioisotope injection. Regions of interest corresponding to the striata and cerebellum were selected.

[6] = Baboon plasma analyses: blood kinetics and metabolism; format: in vivo, baboon (Papio anubis)
Description: Baboon Plasma Analyses: Blood was sampled from the femoral artery at initial intervals of 5 sec. Aliquots of plasma were counted to determine the total plasma radioactivity clearance curve. Representative samples (Table 6) were also analyzed for unchanged N-(3-[^18 F]fluoropropyl)spiroperidol.
The baboon blood total plasma radioactivity clearance curve following injection of NCA N-(3-[^18 F]fluoropropyl)spiroperidol is depicted in FIG. 1. The blood clearance was very rapid. The appearance of metabolites in the blood was also rapid (Table 6). At 10 min after injection 68% of plasma radioactivity was due to unchanged N-(3-[^18 F]fluoropropyl)spiroperidol.
*Plasma samples were extracted with MeOH--0.4M HClO4

[7] = (+)-butaclamol pretreatment, 5 min
[8] = (+)-butaclamol pretreatment, 60 min
[9] = (+)-butaclamol pretreatment, 120 min
[10] = (-)-butaclamol pretreatment, 5 min
[11] = (-)-butaclamol pretreatment, 60 min
[12] = (-)-butaclamol pretreatment, 120 min
[13] = mouse brain, 2X MeOH-HClO4 (washed again)
[14] = mouse brain, MeOH-HClO4 extraction, no further washings
[15] = baboon, (-)-butaclamol pretreatment
[16] = baboon plasma, 0.67 min after injection
[17] = baboon plasma, 4.0 min after injection
[18] = baboon plasma, 10 min after injection
[19] = baboon plasma, 30 min after injection
[20] = baboon plasma, 120 min after injection

## O=C(CCCN1CCC2(CC1)C(=O)N(CCC[18F])CN2c1ccccc1)c1ccc(F)cc1 [N-(3-[^18 F]fluoropropyl)spiroperidol]
[1]; [7]
  Cerebellum, % injected dose: 0.11 (0.08-0.14) %/organ
  Striatum, % injected dose: 0.051 %/organ
  Whole Brain, % injected dose: 0.79 (0.57-1.00) %/organ
[1]; [8]
  Cerebellum, % injected dose: 0.019 (0.013-0.025) %/organ
  Striatum, % injected dose: 0.013 (0.009-0.018) %/organ
  Whole Brain, % injected dose: 0.16 %/organ
[1]; [9]
  Cerebellum, % injected dose: 0.012 %/organ
  Striatum, % injected dose: 0.010 %/organ
  Whole Brain, % injected dose: 0.097 %/organ
[1]; [10]
  Cerebellum, % injected dose: 0.24 (0.13-0.45) %/organ
  Striatum, % injected dose: 0.084 (0.068-0.099) %/organ
  Whole Brain, % injected dose: 1.1 (0.9-1.4) %/organ
[1]; [11]
  Cerebellum, % injected dose: 0.040 (0.032-0.048) %/organ
  Striatum, % injected dose: 0.089 %/organ
  Whole Brain, % injected dose: 0.67 (0.59-0.77) %/organ
[1]; [12]
  Cerebellum, % injected dose: 0.028 (0.023-0.032) %/organ
  Striatum, % injected dose: 0.14 (0.11-0.17) %/organ
  Whole Brain, % injected dose: 0.56 (0.44-0.63) %/organ
Dopamine receptors [2]
  Affinity for dopamine receptors: extremely high affinity for dopamine receptors
[3]; [13]
  Percent Recovery of Total ^18 F Applied to C-18 Sep-Pak, H2O Eluate: 11%
  Percent Recovery of Total ^18 F Applied to C-18 Sep-Pak, MeOH Eluate: 81%
  Percent Recovery of Total ^18 F Applied to C-18 Sep-Pak, NaOH Eluate: 3.1%
  Percent of ^18 F in MeOH as N-(3-[^18 F]fluoropropyl)spiroperidol: 94%
[3]; mouse brain, MeOH Alone
  Percent Recovery of Total ^18 F Applied to C-18 Sep-Pak, MeOH Eluate: 65%
  Percent of ^18 F in MeOH as N-(3-[^18 F]fluoropropyl)spiroperidol: 97%
[3]; [14]
  Percent Recovery of Total ^18 F Applied to C-18 Sep-Pak, H2O Eluate: 4.2%
  Percent Recovery of Total ^18 F Applied to C-18 Sep-Pak, MeOH Eluate: 73%
  Percent Recovery of Total ^18 F Applied to C-18 Sep-Pak, NaOH Eluate: 1.3%
  Percent of ^18 F in MeOH as N-(3-[^18 F]fluoropropyl)spiroperidol: 94%
[3]; mouse brain, one hour
  Stability to metabolic transformation in the central nervous system: very stable to metabolic transformation in the central nervous system
[3]; 2X MeOH-HClO4 (washed again)
  remaining at 1 h: 76%
[3]; MeOH Alone
  remaining at 1 h: 62%
[3]; MeOH-HClO4 extraction, no further washings
  remaining at 1 h: 69%
Dopamine receptors [4]
  Radiation burden: reduced radiation burden
  Uptake and retention in the brain: enhanced uptake and retention in the brain
Dopamine receptors [5]; (+)-butaclamol pretreatment, species not given
  Striatal accumulation of radioactivity, blocking by (+)-butaclamol: blocked stereoselectively by (+)-butaclamol
Dopamine receptors [5]; [15]
  Radioactivity in the cerebellum after first few minutes: declined rapidly in the cerebellum
  Radioactivity in the striatum after first few minutes: increasing for up to 4 hrs in the striatum
Dopamine receptors [5]; baboon, (-)-butaclamol pretreatment, first few minutes
  Influx into striatum and cerebellum: nearly equal for the first few minutes
[6]; baboon
  Blood / total plasma radioactivity clearance: very rapid; also recorded: rapid
[6]; baboon plasma samples
  Total recovery of ^18 F applied to C-18 Sep-pak: 90-103%
[6]; [16]
  % Recovery of Total ^18 F Applied to C-18 Sep-Pak, H2O Eluate: 8%
  % Recovery of Total ^18 F Applied to C-18 Sep-Pak, MeOH Eluate: 93%
  % Recovery of Total ^18 F Applied to C-18 Sep-Pak, NaOH Eluate: 2%
  % of ^18 F in MeOH as N-(3-[^18 F]fluoropropyl)spiroperidol: 98%
[6]; [17]
  % Recovery of Total ^18 F Applied to C-18 Sep-Pak, H2O Eluate: 10%
  % Recovery of Total ^18 F Applied to C-18 Sep-Pak, MeOH Eluate: 83%
  % Recovery of Total ^18 F Applied to C-18 Sep-Pak, NaOH Eluate: 4%
  % of ^18 F in MeOH as N-(3-[^18 F]fluoropropyl)spiroperidol: 99%
[6]; [18]
  % Recovery of Total ^18 F Applied to C-18 Sep-Pak, H2O Eluate: 17%
  % Recovery of Total ^18 F Applied to C-18 Sep-Pak, MeOH Eluate: 71%
  % Recovery of Total ^18 F Applied to C-18 Sep-Pak, NaOH Eluate: 6%
  % of ^18 F in MeOH as N-(3-[^18 F]fluoropropyl)spiroperidol: 96%
[6]; [19]
  % Recovery of Total ^18 F Applied to C-18 Sep-Pak, H2O Eluate: 31%
  % Recovery of Total ^18 F Applied to C-18 Sep-Pak, MeOH Eluate: 45%
  % Recovery of Total ^18 F Applied to C-18 Sep-Pak, NaOH Eluate: 14%
  % of ^18 F in MeOH as N-(3-[^18 F]fluoropropyl)spiroperidol: 90%
[6]; [20]
  % Recovery of Total ^18 F Applied to C-18 Sep-Pak, H2O Eluate: 49%
  % Recovery of Total ^18 F Applied to C-18 Sep-Pak, MeOH Eluate: 30%
  % Recovery of Total ^18 F Applied to C-18 Sep-Pak, NaOH Eluate: 18%
  % of ^18 F in MeOH as N-(3-[^18 F]fluoropropyl)spiroperidol: 74%
[6]; in vivo
  Appearance of metabolites in the blood: rapid
[6]; in vivo, iv, baboon plasma, 0.67 min after injection, read-out: % of Unchanged N-(3-[^18 F]fluoropropyl)spiroperidol
  remaining at 40 s: 91%
[6]; in vivo, iv, baboon plasma, 4.0 min after injection, read-out: % of Unchanged N-(3-[^18 F]fluoropropyl)spiroperidol
  remaining at 4 min: 82%
[6]; in vivo, iv, baboon plasma, 10 min after injection, read-out: % of Unchanged N-(3-[^18 F]fluoropropyl)spiroperidol
  remaining at 10 min: 68%
[6]; in vivo, iv, baboon plasma, 30 min after injection, read-out: % of Unchanged N-(3-[^18 F]fluoropropyl)spiroperidol
  remaining at 0.5 h: 41%
[6]; in vivo, iv, baboon plasma, 120 min after injection, read-out: % of Unchanged N-(3-[^18 F]fluoropropyl)spiroperidol
  remaining at 2 h: 22%

— patent US4871527A, “No-carrier-added [^18 F]-N-fluoroalkylspiroperidols” (The United States of America as represented by the United …, priority 1987, dated 1989)
